We go through five compounds from patent publication US6074626A (Molecular Radiation Management, Inc., priority 1999, dated 2000).

One series concerns hepatoma. Particulars: given systemically; cited from earlier work.
Another series has as its system viable hepatoma. In words: Diagnostic quantitation of tumor uptake by ^195m cisplatinum gamma camera imaging after HAI. Format: in vivo, patients. The procedure: (§1) The rationale for HAI cisplatinum was evaluated in a diagnostic quantitative study trial utilizing radioactive ^195m cisplatinum. The radiopharmaceutical was prepared using a ^194 Pt target and irradiation from neutron flux in a fission reactor (45,46). […] The study was approved by the institutional review board and radiation safety committee of Cooper Hospital University Medical Center for use of up to a 1.0 mCi dose of ^195m cisplatinum, delivered intra-arterially. Institutional Review Board approved informed consent documents were signed by all patients participating in this study.
Platinum-195m is a radionuclide with a physical half-life of 4.02 days. As it decays by isomeric transition it emits several photons imageable by scintillation camera. Six patients were imaged thirty minutes after administration of ^195m cisplatinum (252-1011 μCi) using a dual-head gamma camera system equipped with low-energy parallel-hole collimators. The camera was peaked at 76 keV with an energy window setting of 37%. […] Tumors and normal liver containing Pt-195m uptake were identified and appropriate regions of interest drawn. The method used for quantitation of the radioactivity utilized conjugate view images (180° opposed anterior and posterior planar images). Prior to patient studies a phantom study was performed under fixed geometry to determine a correction factor for patient attenuation and scatter and a system calibration factor. The phantom consisted of a simulated tumor containing 277.5 μCi of Pt-195m in an abdominal phantom filled with water to simulate patient attenuation and scatter. […] The activities determined from the conjugate view counting technique were divided by the administered activity and multiplied by 100 to obtain the percent tumor uptakes. Tumor-to-normal liver ratios were determined from the various regions of interest.
(§2) Because of a high response rate to intra-arterial cisplatinum compared to intravenous delivery a study was done to estimate whether there was a differential tumor uptake of cisplatinum. Patients were given similar tracer doses of ^195m cisplatinum, first intravenously then by HAI. It was estimated that the maximum dose for this diagnostic quantitative trial would be 1.0 mCi, which would yield an estimated absorbed dose no greater than 5 centigray to the kidneys and therefore not cause toxicity. […] FIG. 6 is an example of their gamma camera study done the same day following the intra-arterial injection of 1.0 mCi ^195 Pt cisplatinum. […] Table 4 summarizes the data for this diagnostic quantitative trial following HAI of ^195m cisplatinum. As shown, the mean tumor uptake was 48.4% (range 34.2-55.4%) of the given activity and the mean ratio of tumor-to-liver uptake was 2.1 (range 1.6-2.4).

The next series relates to tumor (hepatoma). Put plainly: Scintigraphic scans of 195^m cisplatin given intravenously and intra-arterially to the same patient. The format is in vivo.
Text: When the drug was given intravenously,less than five percent deposited in the tumor. When the drug was given intra-arterially, 35 to 40 percent of the drug deposited in the tumor, as witnessed by scintigraphic scans.
as §2

Series [1] in a line: Safety of ^195m cisplatinum given by HAI. The format is in vivo. The conditions noted are these: six patients. The procedure:
as §1
as §2, with “As shown, the mean tumor uptake was 48.4% (range 34.2-55.4%) of the given activity and the mean ratio of tumor-to-liver uptake was 2.1 (range 1.6-2.4).” left out

Series [2] has as its system non-resectable hepatocellular carcinoma. Put plainly: Remission and survival of hepatoma patients treated monthly with hepatic artery infusion (HAI) of cisplatinum at 50 mg/m^2. The format is in vivo. Particulars: intra-arterial, 50 mg/m^2, 28 patients.
Series [3] deals with hepatocellular carcinoma. The conditions noted are these: intravenous, cited from earlier work.
Series [4] relates to non-resectable hepatocellular carcinoma. In words: Remission and survival of hepatoma patients treated monthly with hepatic artery infusion (HAI) of cisplatinum at 50 mg/m^2. Set-up: median survival, increase over the six months reported from other regimens: unit not given here. The conditions noted are these: for survival: one patient. The format is in vivo. The source says:
Patient population: All patients were required to have histologic documentation of hepatocellular carcinoma. Pre-treatment evaluation included a complete medical history and physical examination, hepatitis virus status and complete blood cell counts, biochemical survey including lactate dehydrogenase, alkaline phosphatase, BUN, creatinine, bilirubin, PT/PTT and alpha fetoprotein (AFP) level; radiographic studies including CT scans of the chest, abdomen and pelvis with volumetric reconstruction of both tumor and normal liver volumes allowed determination of percentage of liver replacement by tumor. The presence of ascites was determined using both clinical examination and imaging results. Excluded were patients with a creatinine >1.5 and/or BUN >25. All patients gave written informed consent. Prior to referral to our facility 23 patients (34%) had multiple chemotherapeutic regimens. Of the 67 patients, 44 (65%) were treated with external beam radiation to the involved liver as a component of the prescribed treatment program. Assessment of liver function was done using the modified Childs-Pugh classification (41). The American Joint Committee on Cancer staging system was used to stage tumor extent in all patients (42). […]
Intrahepatic arterial chemotherapy: The infusion was performed either with a temporary percutaneous femoral or axillary artery catheter or implanted port or pump. On the day prior to treatment the patients were instructed to take 1 to 2 liters of fluid orally. On admission, 1 liter of 5% dextrose in normal saline with 20 meq potassium was given intravenously. Utilizing a femoral or axillary artery transcutaneous approach an arteriogram of the common hepatic artery was done. Next, cisplatinum 50 mg/m^2 was dissolved to a concentration of 1 mg per ml of sterile water. The solution was then infused intra-arterially at a rate of 1 mg/minute. The chemotherapy was always infused into the most distal artery feeding the main mass of the tumor. Appropriate antiemetic therapy, generally Odansetron 0.15 mg/kg IV and dexamethasone 20 mg IV was administered before the cisplatinum infusion and as needed after the infusion. On discharge home patients were given an oral antiemetic regimen of Lorazepam 1 mg, every six hours, or Odansetron 8 mg every twelve hours, as needed and Dexamethasone 4 mg every six hours for one day. Patients continued monthly HAI of cisplatinum until evidence of progressive disease or death. All patients were assessable for response.
Assessment of response: Routine clinical examinations and laboratory testing were performed at monthly intervals or as clinically indicated. The defined improvements on a minimum of two CT scans and/or AFP titers obtained at least two months apart were required to delineate response. Tumor volumes were quantified by computed tomography scan volumetric analysis of the liver as previously reported (20,43). Complete remission was the disappearance of all clinical evidence of tumor for a minimum of one month. Partial remission was a decrease of 50% or more in the volume of all measurable lesions measured on contrast-enhanced CT scan or a ≥50% reduction in AFP titer. Stable disease was a <50% decrease or <25% increase in tumor volume or AFP titer. Progressive disease was the increase of at least 25% in the tumor volume of all measurable lesions on CT scan or by AFP titer. Toxicity was assessed monthly during HAI therapy using RTOG criteria (44) with scores ≥3 considered to be major toxicities.
Statistical methods: The log-rank procedure was used to test for any statistical differences in survival distribution between patient populations (47). Survival curves were generated by the Kaplan Meier technique (48). Each survival curve was plotted as a step function of the Kaplan-Meier estimates.
Intra-arterial hepatic infusions were given to 67 patients with non-resectable hepatocellular carcinoma treated between July 1991 and September 1997. […]

For series [5], the system named is hepatocellular carcinoma. Particulars: subcutaneously; untreated controls 4 months; cited from earlier work.
Where [6] appears, read: HAI, per patient (b206-b211 = patients 1-6), thirty minutes after administration.
Where [7] appears, read: intra-arterial, tracer quantities.
Where [8] appears, read: HAI after failing previous therapy, disease confined to liver, AFP (+).
Setting [9] is: HAI after failing previous therapy, disease confined to liver, AFP (-).

Structures are written as SMILES. Several values for one entry are separate records, joined by “and”; a condition that tells them apart may be missing. Identical values can stand only once.

Consider `O=c1[nH]cc(F)c(=O)[nH]1` [5-FU, 5-fluorouracil], for which the effectiveness result in the series with hepatoma is reported as “inconsistently effective”.
As to `[NH2][195Pt]([NH2])([Cl])[Cl]` [^195m cisplatinum], the “concentration in viable hepatoma (imaging)” value in the series on viable hepatoma (HAI) is on record as “hyperconcentration”. Also, in the series with viable hepatoma (setting [6]), the Tumor uptake is 55.4% and 49.6% and 52.8% and 48.3% and 34.2% and 50.3%; the Tumor-to-liver uptake ratio is 1.6 and 2.3 and 2.4 and 2.1 and 2.0. Also, the Tumor activity in the series on viable hepatoma (HAI, per patient (b206-b211 = patients 1-6), thirty minutes after administration, administered 252-1011 μCi) is 140 μCi and 501 μCi and 528 μCi and 489 μCi and 343 μCi and 503 μCi. Also, in the series on viable hepatoma (HAI, six patients), the “mean ratio of tumor-to-liver uptake” value was determined as 2.1, the “mean tumor uptake of the given activity” value came to 48.4%, the “range of ratio of tumor-to-liver uptake” value is recorded as 1.6-2.4 and the “range of tumor uptake of the given activity” value is 34.2-55.4%. For the same compound, the “exposure of the tumor vs intravenous route” value with viable hepatoma (intra-arterial, tracer amounts) is recorded as “selectively exposes the tumor to higher drug levels than can be achieved by the intravenous route”. In addition, in the series on viable hepatoma (setting [7]), the kinetics entry was “first-pass kinetics” and the selective tumor uptake is recorded as 34-55 % of administered dose. For the same compound, the “drug deposited in the tumor” value in the series with tumor (hepatoma) (intravenous) is on record as “less than five”. Also, the adverse events entry in series [1] is “no adverse events occurred”.
As for `N.N.[Cl][Pt][Cl]` [cisplatin, cisdiamminedichloroplatinum], the remission stood at 50% in series [2] and 50% in series [4] (intra-arterial, 95 patients combined). Besides, the figures for the response rate entry (with hepatocellular carcinoma [3]; in series [4] (arterial route)) were “less than five” and no less than 50%, respectively. In the series on hepatocellular carcinoma [3] (single drug), the “response rate (in words)” value is listed as “relatively poor response rate”. In addition, the “binding on the hepatoma, persistence” value in the series on tumor (hepatoma) (intra-arterial) was “apparently stays there for a persistent period of time”. Moreover, the median survival in series [4] (AFP positive patients, as compared with octreotide study) stood at 12 months; in series [4] (setting [8]), 17.3 months; in series [4] (setting [9]), 46.3 months; in series [4] (HAI after prior treatment failure, extra-hepatic metastases, AFP (+)/elevated), 8.9 months; in series [4] (HAI after prior treatment failure, extra-hepatic metastases, AFP (-)/not elevated), 11.1 months; in series [4] (HAI as primary therapy, disease confined to liver, AFP (+)), 12.0 months. Moreover, the median survival in series [4] (HAI as primary therapy, disease confined to liver, AFP (-)) is 17.5 months; in series [4] (HAI as primary therapy, extra-hepatic metastases, AFP (+)/elevated), 7.1 months; in series [4] (HAI, AFP (+), all patients), 10.3 months; in series [4] (HAI, AFP (-), all patients, listed as cisplatinum), 21.8 months and 21 months; in series [4] (HAI, chronic Hepatitis B or C, regardless of AFP status) it was 10.7 months. Moreover, the “alive at one year” value in series [4] (setting [8]) came out at 56%; in series [4] (setting [9]), 75%. Further, the survival in series [4] (HAI as primary therapy, extra-hepatic metastases, AFP (-)/not elevated, listed as HAI-CDDP) was found to be 21.0 months; in series [4] (HAI as primary therapy, extra-hepatic metastases, AFP (-)/not elevated, listed as cisplatinum), 21 months. Also, in series [4] (HAI, 50 mg/m^2), the long term remission result is on record as “long term remission can be obtained”. The “overall survival at one year” value in series [4] (HAI, AFP (+), all patients) is on record as 45%; in series [4] (HAI, AFP (-), all patients) it was 59%. The “significance of overall survival difference AFP (+) vs AFP (-)” value in series [4] (HAI, log rank) is reported as “significantly different”. The overall median survival in series [4] (HAI, present study group) is on record as 10.3 months. For the same compound, the response in series [4] (intra-arterial, 67 patients) turned out to be 50%. Besides, in series [4] (worst group of hepatomas (AFP+ positive), intra-arterial), the “median survival, increase over the six months reported from other regimens” value was “one”.
Turning to `CO[C@@]12[C@H](COC(N)=O)C3=C(C(=O)C(C)=C(N)C3=O)N1C[C@@H]1N[C@@H]12` [mitomycin], in the series on hepatoma, the effectiveness result is “inconsistently effective”.
`C[C@@H](O)[C@@H]1NC(=O)[C@H](CCCCN)NC(=O)[C@@H](Cc2c[nH]c3ccccc23)NC(=O)[C@H](Cc2ccccc2)NC(=O)[C@@H](NC(=O)[C@H](N)Cc2ccccc2)CSSC[C@@H](C(=O)N[C@H](CO)[C@@H](C)O)NC1=O` [octreotide]: the median survival in the series on hepatocellular carcinoma [5] is 13 months.
